In ChEMBL document CHEMBL4507294, “Data for DCP probe MSD-CYP11B2” (2021):

How the values were obtained:
[1] = target: Tyrosine-protein kinase receptor UFO (Homo sapiens) (UniProt P30530); conditions: Compound concentration 1000.0 nM
[2] = target: Serine/threonine-protein kinase 25 (Homo sapiens) (UniProt O00506); conditions: Compound concentration 1000.0 nM
[3] = target: Serine/threonine-protein kinase Sgk3 (Homo sapiens) (UniProt Q96BR1); conditions: Compound concentration 1000.0 nM
[4] = target: T1, Alpha-2B adrenergic receptor (Homo sapiens) (UniProt P18089); conditions: Compound concentration 10.0 uM
T1 sequence (whole entry): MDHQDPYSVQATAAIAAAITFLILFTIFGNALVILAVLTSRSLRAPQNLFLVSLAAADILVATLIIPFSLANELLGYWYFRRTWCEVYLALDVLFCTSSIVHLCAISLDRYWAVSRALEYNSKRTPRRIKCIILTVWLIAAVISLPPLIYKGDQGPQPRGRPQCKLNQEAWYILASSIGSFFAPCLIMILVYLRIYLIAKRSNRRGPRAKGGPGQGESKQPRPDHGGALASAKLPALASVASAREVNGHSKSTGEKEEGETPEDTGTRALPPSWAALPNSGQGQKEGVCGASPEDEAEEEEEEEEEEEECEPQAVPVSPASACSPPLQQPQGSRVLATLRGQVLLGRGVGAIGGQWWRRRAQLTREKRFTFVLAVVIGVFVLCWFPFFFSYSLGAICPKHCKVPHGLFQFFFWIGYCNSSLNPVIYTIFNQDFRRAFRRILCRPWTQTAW

[5] = target: Ephrin type-A receptor 1 (Homo sapiens) (UniProt P21709); conditions: Compound concentration 1000.0 nM
[6] = target: Serine/threonine-protein kinase Nek9 (Homo sapiens) (UniProt Q8TD19); conditions: Compound concentration 1000.0 nM
[7] = target: Dual specificity mitogen-activated protein kinase kinase 4 (Homo sapiens) (UniProt P45985); conditions: Compound concentration 1000.0 nM
Dual specificity mitogen-activated protein kinase kinase 4 (Homo sapiens), sequence (P45985 whole entry, the tested form may be a part): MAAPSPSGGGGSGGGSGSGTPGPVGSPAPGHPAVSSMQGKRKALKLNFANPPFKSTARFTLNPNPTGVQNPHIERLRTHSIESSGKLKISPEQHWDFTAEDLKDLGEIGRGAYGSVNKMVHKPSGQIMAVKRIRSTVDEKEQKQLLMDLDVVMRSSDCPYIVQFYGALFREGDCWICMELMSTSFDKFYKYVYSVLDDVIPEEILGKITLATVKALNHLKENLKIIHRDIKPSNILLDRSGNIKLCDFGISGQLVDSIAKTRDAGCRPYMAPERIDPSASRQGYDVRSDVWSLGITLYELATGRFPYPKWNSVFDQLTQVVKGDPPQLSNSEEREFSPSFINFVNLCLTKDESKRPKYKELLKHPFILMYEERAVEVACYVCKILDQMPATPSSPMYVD

[8] = target: LIM domain kinase 2 (Homo sapiens) (UniProt P53671); conditions: Compound concentration 1000.0 nM
[9] = target: Phosphatidylinositol 4,5-bisphosphate 3-kinase catalytic subunit delta isoform (Homo sapiens) (UniProt O00329); conditions: Compound concentration 1000.0 nM
[10] = target: Phosphatidylinositol 4-kinase beta (Homo sapiens) (UniProt Q9UBF8); conditions: Compound concentration 1000.0 nM
[11] = target: Tyrosine-protein kinase ZAP-70 (Homo sapiens) (UniProt P43403); conditions: Compound concentration 1000.0 nM
[12] = target: Cyclin-dependent kinase 18 (Homo sapiens) (UniProt Q07002); conditions: Compound concentration 1000.0 nM
[13] = target: cGMP-dependent protein kinase 2 (Homo sapiens) (UniProt Q13237); conditions: Compound concentration 1000.0 nM
[14] = target: Serine/threonine-protein kinase PLK2 (Homo sapiens) (UniProt Q9NYY3); conditions: Compound concentration 1000.0 nM
[15] = target: Ribosomal protein S6 kinase alpha-1 (Homo sapiens) (UniProt Q15418); conditions: Compound concentration 1000.0 nM
Ribosomal protein S6 kinase alpha-1 (Homo sapiens), sequence (Q15418 whole entry): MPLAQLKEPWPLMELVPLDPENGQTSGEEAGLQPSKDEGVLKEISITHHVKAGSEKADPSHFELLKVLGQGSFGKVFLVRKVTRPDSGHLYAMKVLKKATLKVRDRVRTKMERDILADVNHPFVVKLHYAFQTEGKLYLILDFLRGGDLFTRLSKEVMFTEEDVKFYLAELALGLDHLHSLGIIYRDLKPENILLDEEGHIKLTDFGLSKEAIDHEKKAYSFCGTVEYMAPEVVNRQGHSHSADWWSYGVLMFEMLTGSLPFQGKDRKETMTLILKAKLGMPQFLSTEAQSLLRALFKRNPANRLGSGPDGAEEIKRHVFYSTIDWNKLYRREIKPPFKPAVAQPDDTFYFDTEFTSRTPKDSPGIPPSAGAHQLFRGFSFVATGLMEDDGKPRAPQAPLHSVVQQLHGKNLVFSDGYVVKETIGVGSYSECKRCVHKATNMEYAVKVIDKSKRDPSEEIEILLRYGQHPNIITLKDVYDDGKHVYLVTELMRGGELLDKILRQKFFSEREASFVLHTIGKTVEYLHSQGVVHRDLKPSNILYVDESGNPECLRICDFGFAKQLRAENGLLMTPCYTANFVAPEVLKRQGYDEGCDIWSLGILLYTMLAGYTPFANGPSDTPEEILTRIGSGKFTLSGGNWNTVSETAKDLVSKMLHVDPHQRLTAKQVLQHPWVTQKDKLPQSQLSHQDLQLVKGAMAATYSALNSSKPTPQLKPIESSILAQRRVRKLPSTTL

[16] = target: D(1A) dopamine receptor (Homo sapiens) (UniProt P21728); conditions: Compound concentration 10.0 uM
[17] = target: Serine/threonine-protein kinase LATS2 (Homo sapiens) (UniProt Q9NRM7); conditions: Compound concentration 1000.0 nM
[18] = target: Serine/threonine-protein kinase tousled-like 1 (Homo sapiens) (UniProt Q9UKI8); conditions: Compound concentration 1000.0 nM
[19] = target: Beta-1 adrenergic receptor (Homo sapiens, UniProt P08588); conditions: Compound concentration 10.0 uM
[20] = test system: Epidermal growth factor receptor (Homo sapiens), P00533 [L858R]; conditions: Compound concentration 1000.0 nM
[21] = target: Serine/threonine-protein kinase D1 (Homo sapiens) (UniProt Q15139); conditions: Compound concentration 1000.0 nM
[22] = target: Tyrosine-protein kinase SYK (Homo sapiens) (UniProt P43405); conditions: Compound concentration 1000.0 nM
[23] = target: Serine/threonine-protein kinase haspin (Homo sapiens) (UniProt Q8TF76); conditions: Compound concentration 1000.0 nM
[24] = test system: Receptor-type tyrosine-protein kinase FLT3 (Homo sapiens), P36888 [D835Y]; conditions: Compound concentration 1000.0 nM
[25] = target: Serine/threonine-protein kinase TNNI3K (Homo sapiens) (UniProt Q59H18); conditions: Compound concentration 1000.0 nM
[26] = test system: Tyrosine-protein kinase ABL1 (Homo sapiens), P00519 [T315I]; conditions: Compound concentration 1000.0 nM
[27] = target: Wee1-like protein kinase (Homo sapiens) (UniProt P30291); conditions: Compound concentration 1000.0 nM
Wee1-like protein kinase (Homo sapiens), sequence (P30291 whole entry, looked up): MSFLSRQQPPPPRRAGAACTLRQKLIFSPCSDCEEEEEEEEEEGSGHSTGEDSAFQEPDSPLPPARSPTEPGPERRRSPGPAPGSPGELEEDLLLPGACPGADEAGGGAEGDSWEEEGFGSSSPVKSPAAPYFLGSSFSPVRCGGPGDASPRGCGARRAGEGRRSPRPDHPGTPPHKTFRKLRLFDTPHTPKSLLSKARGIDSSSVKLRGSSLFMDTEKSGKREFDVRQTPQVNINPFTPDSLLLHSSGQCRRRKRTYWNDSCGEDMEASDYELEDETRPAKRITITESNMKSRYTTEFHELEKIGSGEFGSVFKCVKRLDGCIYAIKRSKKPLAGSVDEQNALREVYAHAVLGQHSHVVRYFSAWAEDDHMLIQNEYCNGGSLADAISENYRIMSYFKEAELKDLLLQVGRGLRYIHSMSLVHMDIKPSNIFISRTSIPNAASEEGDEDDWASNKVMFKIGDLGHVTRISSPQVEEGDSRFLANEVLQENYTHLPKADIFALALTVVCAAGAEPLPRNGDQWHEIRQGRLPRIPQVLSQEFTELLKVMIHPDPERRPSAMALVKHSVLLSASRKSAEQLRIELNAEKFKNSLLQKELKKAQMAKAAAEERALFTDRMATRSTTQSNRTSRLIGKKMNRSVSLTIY

[28] = test system: eIF-2-alpha kinase GCN2 (Homo sapiens), Q9P2K8 [S808G]; conditions: Compound concentration 1000.0 nM
[29] = target: Wee1-like protein kinase 2 (Homo sapiens) (UniProt P0C1S8); conditions: Compound concentration 1000.0 nM
Wee1-like protein kinase 2 (Homo sapiens), sequence (P0C1S8 whole entry, looked up): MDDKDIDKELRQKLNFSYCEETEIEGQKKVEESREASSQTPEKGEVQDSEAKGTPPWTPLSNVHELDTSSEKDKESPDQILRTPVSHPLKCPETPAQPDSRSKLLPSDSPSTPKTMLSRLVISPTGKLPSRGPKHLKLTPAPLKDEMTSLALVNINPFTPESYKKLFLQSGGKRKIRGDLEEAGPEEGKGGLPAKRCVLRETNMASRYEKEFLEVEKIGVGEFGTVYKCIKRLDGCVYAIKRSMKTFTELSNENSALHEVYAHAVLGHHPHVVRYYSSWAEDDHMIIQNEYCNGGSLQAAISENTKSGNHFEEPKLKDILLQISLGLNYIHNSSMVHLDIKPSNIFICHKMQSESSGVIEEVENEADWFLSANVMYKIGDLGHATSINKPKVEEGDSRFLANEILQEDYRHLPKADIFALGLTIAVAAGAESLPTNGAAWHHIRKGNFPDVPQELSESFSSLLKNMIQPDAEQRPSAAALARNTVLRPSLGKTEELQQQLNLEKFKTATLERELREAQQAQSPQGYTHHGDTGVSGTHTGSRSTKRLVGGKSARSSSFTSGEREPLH

[30] = target: Mitogen-activated protein kinase kinase kinase kinase 3 (Homo sapiens) (UniProt Q8IVH8); conditions: Compound concentration 1000.0 nM
[31] = target: AP2-associated protein kinase 1 (Homo sapiens) (UniProt Q2M2I8); conditions: Compound concentration 1000.0 nM
[32] = target: Hormonally up-regulated neu tumor-associated kinase (Homo sapiens) (UniProt P57058); conditions: Compound concentration 1000.0 nM
Hormonally up-regulated neu tumor-associated kinase (Homo sapiens), sequence (P57058 whole entry): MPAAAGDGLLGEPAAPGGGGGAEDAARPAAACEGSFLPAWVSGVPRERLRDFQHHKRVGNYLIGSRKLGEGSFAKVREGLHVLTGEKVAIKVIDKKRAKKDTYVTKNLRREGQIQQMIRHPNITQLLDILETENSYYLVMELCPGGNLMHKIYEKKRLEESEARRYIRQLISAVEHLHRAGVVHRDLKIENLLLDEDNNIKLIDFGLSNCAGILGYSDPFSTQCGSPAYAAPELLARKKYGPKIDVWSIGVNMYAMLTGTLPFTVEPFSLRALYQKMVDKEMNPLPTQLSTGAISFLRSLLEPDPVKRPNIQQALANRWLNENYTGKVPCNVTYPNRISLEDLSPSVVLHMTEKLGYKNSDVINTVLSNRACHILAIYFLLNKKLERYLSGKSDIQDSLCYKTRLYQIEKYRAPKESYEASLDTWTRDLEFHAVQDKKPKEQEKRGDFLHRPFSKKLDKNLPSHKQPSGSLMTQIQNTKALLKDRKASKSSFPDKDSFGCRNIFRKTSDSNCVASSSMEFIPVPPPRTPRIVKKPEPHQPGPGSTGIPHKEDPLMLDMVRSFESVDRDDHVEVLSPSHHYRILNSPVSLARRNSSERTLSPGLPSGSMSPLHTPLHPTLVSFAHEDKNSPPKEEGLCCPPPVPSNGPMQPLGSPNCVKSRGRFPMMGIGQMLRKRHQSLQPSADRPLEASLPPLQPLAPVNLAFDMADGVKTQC

[33] = target: Tyrosine-protein kinase TXK (Homo sapiens) (UniProt P42681); conditions: Compound concentration 1000.0 nM
Tyrosine-protein kinase TXK (Homo sapiens), sequence (P42681 whole entry): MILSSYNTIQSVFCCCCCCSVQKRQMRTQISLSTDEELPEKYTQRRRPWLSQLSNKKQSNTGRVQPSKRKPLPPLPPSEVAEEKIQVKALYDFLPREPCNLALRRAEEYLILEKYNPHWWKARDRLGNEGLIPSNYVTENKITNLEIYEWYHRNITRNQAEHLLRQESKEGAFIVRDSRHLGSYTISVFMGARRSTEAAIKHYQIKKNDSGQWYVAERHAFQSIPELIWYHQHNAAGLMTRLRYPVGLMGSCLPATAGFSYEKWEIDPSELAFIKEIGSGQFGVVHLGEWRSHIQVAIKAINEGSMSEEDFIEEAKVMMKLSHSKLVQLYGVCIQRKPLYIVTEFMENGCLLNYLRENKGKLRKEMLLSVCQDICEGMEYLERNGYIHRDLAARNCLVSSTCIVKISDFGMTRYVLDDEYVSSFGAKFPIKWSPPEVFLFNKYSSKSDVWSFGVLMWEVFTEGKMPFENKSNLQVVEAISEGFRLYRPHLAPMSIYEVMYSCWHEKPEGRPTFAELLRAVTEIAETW

[34] = target: Maternal embryonic leucine zipper kinase (Homo sapiens) (UniProt Q14680); conditions: Compound concentration 1000.0 nM
[35] = target: Calcium/calmodulin-dependent protein kinase type II subunit beta (Homo sapiens) (UniProt Q13554); conditions: Compound concentration 1000.0 nM
[36] = target: Casein kinase II subunit alpha (Homo sapiens) (UniProt P68400); conditions: Compound concentration 1000.0 nM
[37] = target: Mitogen-activated protein kinase kinase kinase 15 (Homo sapiens) (UniProt Q6ZN16); conditions: Compound concentration 1000.0 nM
[38] = target: Cyclin-dependent kinase 17 (Homo sapiens) (UniProt Q00537); conditions: Compound concentration 1000.0 nM
[39] = target: Histamine H2 receptor (Homo sapiens) (UniProt P25021); conditions: Compound concentration 10.0 uM

Tyrosine-protein kinase receptor UFO (Homo sapiens), sequence (P30530 whole entry): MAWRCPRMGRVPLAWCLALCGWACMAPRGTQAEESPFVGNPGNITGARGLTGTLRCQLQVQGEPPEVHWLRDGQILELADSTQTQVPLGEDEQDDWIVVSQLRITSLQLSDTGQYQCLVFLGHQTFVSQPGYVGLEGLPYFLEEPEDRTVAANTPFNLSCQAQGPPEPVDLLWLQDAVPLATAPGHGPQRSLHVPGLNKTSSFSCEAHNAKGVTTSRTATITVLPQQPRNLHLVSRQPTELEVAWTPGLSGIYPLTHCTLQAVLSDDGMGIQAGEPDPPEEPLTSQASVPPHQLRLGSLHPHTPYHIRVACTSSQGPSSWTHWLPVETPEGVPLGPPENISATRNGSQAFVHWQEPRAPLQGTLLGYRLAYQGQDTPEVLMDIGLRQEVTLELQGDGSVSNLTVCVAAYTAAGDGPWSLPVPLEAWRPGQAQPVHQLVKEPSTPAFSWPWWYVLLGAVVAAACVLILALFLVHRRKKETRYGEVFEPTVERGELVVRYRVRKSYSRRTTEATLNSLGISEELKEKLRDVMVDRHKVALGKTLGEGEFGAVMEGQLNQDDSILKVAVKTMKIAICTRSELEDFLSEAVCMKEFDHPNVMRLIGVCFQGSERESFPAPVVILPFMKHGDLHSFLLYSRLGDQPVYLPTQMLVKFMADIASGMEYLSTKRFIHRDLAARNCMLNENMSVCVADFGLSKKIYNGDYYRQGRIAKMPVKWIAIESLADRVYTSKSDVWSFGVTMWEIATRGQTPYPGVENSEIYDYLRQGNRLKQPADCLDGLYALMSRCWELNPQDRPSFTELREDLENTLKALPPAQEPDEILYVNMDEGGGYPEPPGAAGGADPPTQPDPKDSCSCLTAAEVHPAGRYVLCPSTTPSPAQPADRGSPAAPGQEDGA
Serine/threonine-protein kinase Sgk3 (Homo sapiens), sequence (Q96BR1 whole entry): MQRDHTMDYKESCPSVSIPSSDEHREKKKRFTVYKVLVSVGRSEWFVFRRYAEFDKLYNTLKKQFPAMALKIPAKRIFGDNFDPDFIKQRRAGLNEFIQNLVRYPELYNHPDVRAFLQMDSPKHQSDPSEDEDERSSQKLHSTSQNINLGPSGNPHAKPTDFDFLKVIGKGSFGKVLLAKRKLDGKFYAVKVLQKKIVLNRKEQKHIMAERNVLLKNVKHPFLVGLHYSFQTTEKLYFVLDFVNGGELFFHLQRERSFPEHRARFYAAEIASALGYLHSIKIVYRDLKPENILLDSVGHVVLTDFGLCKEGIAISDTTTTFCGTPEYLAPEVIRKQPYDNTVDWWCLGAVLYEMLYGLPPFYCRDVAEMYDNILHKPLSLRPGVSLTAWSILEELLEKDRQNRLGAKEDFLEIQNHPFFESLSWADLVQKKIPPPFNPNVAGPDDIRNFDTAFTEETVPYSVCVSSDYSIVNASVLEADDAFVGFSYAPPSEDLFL

Structure (SMILES)	residual activity [1]	residual activity [2]	residual activity [3]	inhibition [4]	residual activity [5]	residual activity [6]	residual activity [7]	residual activity [8]	residual activity [9]	residual activity [10]	residual activity [11]	residual activity [12]	residual activity [13]	residual activity [14]	residual activity [15]	inhibition [16]	residual activity [17]	residual activity [18]	inhibition [19]	residual activity [20]	further results
CC(C)(O)c1cncc(-c2nc3ccc(F)cc3n2C2CC2)c1 [MSD-CYP11B2]	100%	100%	100%	76.4%	100%	100%	100%	100%	100%	100%	100%	100%	90%	100%	100%	0.87%	100%	100%	59.4%	100%	residual activity [21]: 100%; residual activity [22]: 100%; residual activity [23]: 83%; residual activity [24]: 100%; residual activity [25]: 100%; residual activity [26]: 100%; residual activity [27]: 72%; residual activity [28]: 100%; residual activity [29]: 100%; residual activity [30]: 100%; residual activity [31]: 100%; residual activity [32]: 100%; residual activity [33]: 92%; residual activity [34]: 100%; residual activity [35]: 100%; residual activity [36]: 100%; residual activity [37]: 100%; residual activity [38]: 100%; inhibition [39]: 1.75%
FC(F)(F)c1ccc2c(c1)nc(-c1cccnc1)n2C1CC1 [MSD-CYP11B2-Negative-control]	100%	99%	100%	43.3%	100%	100%	100%	100%	81%	94%	100%	100%	78%	94%	100%	-3.97%	100%	100%	13.4%	91%	residual activity [21]: 100%; residual activity [22]: 100%; residual activity [23]: 96%; residual activity [24]: 100%; residual activity [25]: 100%; residual activity [26]: 100%; residual activity [27]: 93%; residual activity [28]: 93%; residual activity [29]: 100%; residual activity [30]: 100%; residual activity [31]: 100%; residual activity [32]: 100%; residual activity [33]: 100%; residual activity [34]: 94%; residual activity [35]: 100%; residual activity [36]: 100%; residual activity [37]: 100%; residual activity [38]: 100%; inhibition [39]: 6.72%
